Data: patent US10653691B2, “Method of promoting remyelination” (Case Western Reserve University, priority 2013, dated 2020)

Columns and labels:
LPC lesion mouse model = assay: LPC-induced focal demyelination of the spinal cord and drug treatment; assay type: in vivo; details: for MBP staining in the lesions: 8 and 12 d.p.l.; for number of newly generated CC1+ oligodendrocytes in the lesion core: 8 d.p.l., miconazole 10 or 40 mg per kg, clobetasol 2 mg per kg, vs vehicle; for extent of remyelination (electron micrographs, toluidine blue): lesions of treated mice
Experimental: Focal demyelination in the spinal cord was induced by the injection of 1% LPC solution. Ten- to 12-week-old C57BL/6 female mice were anaesthetized using isoflurane and a T10 laminectomy was performed. One microlitre of 1% LPC was infused into the dorsal column at a rate of […]. The animals were euthanized either at day 8 or day 12 after the laminectomy (n=6-9 per group). Animals that were euthanized at day 8 received vehicle or drug daily by intraperitoneal injection between days 3 and 7. Animals used in the day 12 experiments received vehicle or drug daily by intraperitoneal injection between days 4 and 11. Drugs were dissolved in DMSO and then diluted with sterile saline for injection. Mice were deeply anaesthetized using ketamine/xylazine rodent cocktail and then euthanized by transcardial perfusion with 4% PFA for histological analysis or 4% PFA, 2% gluteraldehyde, and 0.1M sodium cacodylate for electron microscopy. PFA fixed tissue was equilibrated in 30% sucrose, embedded in OCT, and cryosectioned at 20 μm thickness and processed for CC1 and MBP immunohistochemistry. ImageJ was used to measure area of the lesion and CC1^+ cells within the lesion were scored manually. For CC1 scoring, sections were taken from the centre of each lesion to control for lesion variability.
Samples were processed as previously described.

MOG35-55 EAE mouse model [1] = assay: MOG35-55 chronic progressive EAE model; details: for areas of myelin disruption in the white matter (luxol fast blue, MBP immunohistochemistry): cervical spinal cords; for functional improvement (disease score): daily i.p. for 10 days from peak of disease; for MBP expression and extent of demyelination in the spinal cord: histology after treatment, vs vehicle; for average clinical scores and cumulative clinical scores: larger treatment cohort, n=12 to 18 mice per group; for immune cell infiltration into the lesion areas (IBA1 staining): spinal cords after treatment
Experimental: Immunohistochemistry was performed as previously described. In short, tissue sections or whole slices were washed three times in PBS, blocked in PBS containing Triton X-100 (0.1%) and normal donkey serum (NDS, 2% for sections and 10% for cerebellar slices) and incubated with primary antibody overnight. For MBP immunohistochemistry, the primary antibody solution consisted of 2% NDS, 2% bovine serum albumin, and 0.1% saponin. For all other antibodies, the primary antibody solution consisted of 2% NDS and 0.1% Triton X-100. Primary antibodies used included rat anti-MBP (Abcam, ab7349; 1:100), mouse anti-APC CC1 clone (Millipore, MABC200; 1:500), and rabbit anti-IBA1 (Wako Chemicals, 019-19741; 1:1,000). The tissue was then washed in PBS and incubated in secondary antibodies for […]. Secondary detection was performed with Alexa Fluor-conjugated secondary antibodies (1:500) for 1 h. Luxol fast blue staining was performed as previously described.
Samples were processed as previously described. In short, samples were osmicated, stained en bloc with uranyl acetate, and embedded in EMbed 812, an Epon-812 substitute (EMS). Sections (1 μm) were cut and stained with toluidine blue and visualized on a light microscope (Leica DM5500B). Additional thin sections were cut, carbon coated and imaged either on a JEOL JEM-1200-EX electron microscope or a T12 electron microscope (FEI).
(§1) EAE was induced by immunizing 10-week-old C57BL/6 female mice with […] injection of […] complete Freund's adjuvant emulsion (Hooke Laboratories). One hour after immunization, mice were given 100 ng of pertussis toxin by 100 μl intraperitoneal injection. A second dose of pertussis toxin was administered the next day. EAE onset was monitored daily and scored using a clinical scale where 0 represented no abnormality; 1, limp tail; 2, limp tail and hind limb weakness; 3, hind limb paralysis; 4, hind limb paralysis and forelimb weakness; and 5, moribund. […] Once mice reached peak of disease ˜day 15; clinical score=3) they were randomized into treatment groups, and drug or vehicle (DMSO in saline) was administered intraperitoneally daily for 10 days (n=12-16 mice per group). […] Experimenters were blinded to the identity of the treatments and animals were scored daily. Cumulative disease scores for each animal were calculated during the treatment period, and a two-tailed t-test compared drug—with vehicle-treated groups. The extent of recovery for each animal was calculated as the difference between the peak disease score and the score at the end of each experiment, and a two-tailed t-test was used to compare each treatment with vehicle. External validation of MOG35-55 EAE experiments (n=12 mice per group) was performed at Hooke Laboratories with experimenters blinded to the identity of the substances.

[2] = system: PLP139-151 EAE mouse model; assay: PLP139-151-induced relapsing remitting EAE; assay type: in vivo
From the text: Six- to seven-week-old female SJL/J mice were induced with PLP139-151 as for ex vivo recall assays. Mice were allowed to progress to disease onset at day 13 before being randomized into treatment groups (n=10 mice per group). […] This period fully encompassed the acute phase of disease onset followed by remission and the primary disease relapse. Treatments were blinded to the experimenters performing the assays.

OPCs = assay: HCA of astrocyte induction (GFAP); assay type: cell-based, mouse; details: 72 h, in vitro
Experimental: For the astrocyte experiments in FIG. 3C, the experimental setup was identical to the PLP1-based primary validation screen except plates were stained for GFAP (DAKO, Z0334; 1:5,000). BMP4 (R&D Systems; 50 ng ml^−1) and LIF (Millipore; 10^3 U ml^−1) were used as the positive control for astrocyte induction. Assay plates were imaged on the Operetta High Content Imaging and Analysis system and a set of 14×20 fields captured. Columbus Data Management and Analysis System software (PerkinElmer) was used to quantify the percentage of GFAP1 astrocytes in each well using a method similar to that developed for oligodendrocytes.

[3] = system: muscarinic receptor subtypes (M1-M5); assay: Muscarinic receptor antagonism, GeneBLAzer or Tango cellular reporter assays; assay type: cell-based; details: 1 μM
Experimental: GeneBLAzer or Tango assays were performed to determine level of acetylcholine muscarinic receptor M1, M3, M5 (GeneBLAzer), M2 and […] (Tango) antagonism.

MOG35-55 EAE mouse model [4] = assay: External validation of MOG35-55 EAE at an independent contract laboratory; assay type: in vivo; details: 10 mg/kg, n=12 mice per group
Experimental: as §1, with “External validation of MOG35-55 EAE experiments (n=12 mice per group) was performed at Hooke Laboratories with experimenters blinded to the identity of the substances.” left out

[5] = miconazole 10 mg/kg, clobetasol 2 mg/kg, benztropine 10 mg/kg

Compound | MBP staining in the lesions (LPC lesion mouse model) | number of newly generated CC1+ oligodendrocytes in the lesion core (LPC lesion mouse model) | myelin thickness relative to axon diameter (g ratio) (LPC lesion mouse model; 12 d.p.l., compared with intact myelin) | extent of remyelination (electron micrographs, toluidine blue) (LPC lesion mouse model) | areas of myelin disruption in the white matter (luxol fast blue, MBP immunohistochemistry) (MOG35-55 EAE mouse model [1]) | functional improvement (disease score) (MOG35-55 EAE mouse model [1]; [5]) | MBP expression and extent of demyelination in the spinal cord (MOG35-55 EAE mouse model [1]) | average clinical scores and cumulative clinical scores (MOG35-55 EAE mouse model [1]) | overt toxicity to the animals (MOG35-55 EAE mouse model [1]; miconazole 10 mg/kg, clobetasol 2 mg/kg, benztropine 10 mg/kg, daily i.p. 10 days) | immune cell infiltration into the lesion areas (IBA1 staining) (MOG35-55 EAE mouse model [1]) | efficacy in reducing disease severity ([2]; daily i.p. day 13 to 29, clobetasol 2 mg/kg, miconazole 10 mg/kg, benztropine 10 mg/kg) | T cells within the spleen ([2]; day 29, 2 mg/kg) | astrocyte formation from OPCs (OPCs) | inhibition of muscarinic receptor subtypes M1-M5 [3] | efficacy to reduce disease severity, independent validation (MOG35-55 EAE mouse model [4])
C[C@H]1C[C@H]2[C@@H]3CCC4=CC(=O)C=C[C@]4(C)[C@@]3(F)[C@@H](O)C[C@]2(C)[C@@]1(O)C(=O)CCl [clobetasol] | extensive MBP staining | significant increase in the number of newly generated CC1^+ oligodendrocytes | thinner than intact myelin | striking increase in the extent of remyelination | decrease in areas of myelin disruption in the white matter | marked improvement in function | restoration of MBP expression and a reduction in the extent of demyelination in the spinal cord | significant reduction of disease and functional improvement | no drugs showed any overt evidence of toxicity | small reduction of immune cell infiltration into the lesion areas, especially in clobetasol-treated animals, but not an abrogation | showed efficacy in reducing disease severity | severe reduction of T cells within the spleen | neither drug showed a significant impact on astrocyte formation | Neither miconazole nor clobetasol inhibited any of the five muscarinic receptor subtypes | –
Clc1ccc(COC(Cn2ccnc2)c2ccc(Cl)cc2Cl)c(Cl)c1 (stereo not shown) [miconazole] | extensive MBP staining | significant increase in the number of newly generated CC1^+ oligodendrocytes | – | striking increase in the extent of remyelination | decrease in areas of myelin disruption in the white matter | marked improvement in function | restoration of MBP expression and a reduction in the extent of demyelination in the spinal cord | significant reduction of disease and functional improvement | – | small reduction of immune cell infiltration into the lesion areas | – | – | neither drug showed a significant impact on astrocyte formation | Neither miconazole nor clobetasol inhibited any of the five muscarinic receptor subtypes | independently validated the preclinical efficacy
